Measured values reported in ChEMBL document CHEMBL4706475, “Multiparameter Lead Optimization to Give an Oral Checkpoint Kinase 1 (CHK1) Inhibitor Clinical Candidate: (R)-5-((4-((Morpholin-2-ylmethyl)amino)-5-(trifluoromethyl)pyridin-2-yl)amino)pyrazine-2-carbonitrile (CCT245737)” (J Med Chem, 2016).
In brackets after ≈: the same amount, converted by molar mass.

Assays:
in vivo [1] = details: mouse, iv, 5 mg/kg
in vitro [2] = details: mouse, liver microsomes
in vivo [3] = details: mouse, iv, 5 mg/kg; remark: listed apart in the source
in vivo [4] = details: mouse, po, 5 mg/kg
in vivo [5] = details: mouse, iv, 5 mg/kg; remark: listed apart in the source
in vivo [6] = details: mouse, iv, 10 mg/kg
in vivo [7] = details: mouse, iv, 10 mg/kg; remark: listed apart in the source
in vivo [8] = details: mouse, iv, 10 mg/kg; remark: listed apart in the source
in vivo [9] = details: mouse, po, 10 mg/kg
[10] = Intrinsic clearance in dog hepatocytes at 3 uM assessed per million cells; format: ADME, cell-based, Canis lupus familiaris, Hepatocyte; details: read-out: CLH
[11] = Metabolic stability in human liver microsomes in presence of glutathione; format: ADME, Microsome
[12] = Solubility of compound in phosphate buffer at pH 6.5; format: physicochemical
in vitro [13] = details: human, hepatocytes
[14] = Lipophilicity, logD of the compound at pH 7.4 by LC-MS/MS analysis; format: physicochemical; details: buffer
[15] = mouse, in vivo, po, 10 mg/kg
in vivo [16] = details: rat
[17] = Intrinsic clearance in rat hepatocytes at 3 uM assessed per million cells; format: ADME, cell-based, Hepatocyte; details: read-out: CLH
[18] = Metabolic stability in human liver microsomes in absence of glutathione; format: ADME, Microsome
[19] = Free drug level in NCr athymic mouse plasma xenografted with human HT-29 cells at 12.5 to 100 mg/kg, po administered as single dose measured at 24 hrs; format: ADME, organism-based; details: in vivo, dose 12.5-100 mg/kg
in vivo [20] = details: rat, po
[21] = Basicity constant, pKa of the compound by UV metric assay; format: physicochemical
[22] = Solubility of compound in pure water; format: physicochemical
[23] = Passive permeability in human Caco2 cells; format: ADME, cell-based; details: caco-2
in vivo [24] = details: NCr athymic, mouse, plasma, po, 300 mg/kg
in vitro [25] = details: CD-1, mouse, hepatocytes
in vivo [26] = details: rat; remark: listed apart in the source

COC(=O)c1cnc(Nc2cnc(C#N)cn2)cc1NCCC1CCNCC1
Vd (in vivo [1]): 60.5 L/kg | metabolised at 0.5 h (in vitro [2]): 26% | half-life (in vivo [3]): 11 h | bioavailability (in vivo [4]): 44% | clearance (in vivo [5]): 141 mL/min/kg

CC(C)(O)C#Cc1cnc(Nc2cnc(C#N)cn2)cc1NC[C@@H]1CNCCO1
half-life (in vivo [6]): 3.8 h | Vd (in vivo [7]): 10.4 L/kg | clearance (in vivo [8]): 138 mL/min/kg | bioavailability (in vivo [9]): 10%

N#Cc1cnc(Nc2cc(NC[C@@H]3CNCCO3)c(C3CC3)cn2)cn1
half-life (in vivo [6]): 8.1 h | Vd (in vivo [7]): 43.9 L/kg | clearance (in vivo [8]): 112 mL/min/kg | bioavailability (in vivo [9]): 68%

N#Cc1cnc(Nc2cc(NC[C@H]3CNCCO3)c(C(F)(F)F)cn2)cn1 [SRA-737]
hepatocyte CLint at 3 µM [10]: 55 µL/min/1e6 cells | half-life (in vivo [6]): 2.9 h | Vd (in vivo [7]): 9.25 L/kg | Stabilty [11]: Stable | solubility [12]: 1500 µg/mL (≈ 3950 µM) | hepatocyte CLint at 3 µM (in vitro [13]): 2.72 µL/min/1e6 cells | logD [14]: 1.47 | F [15]: 105% | clearance (in vivo [16]): 58.3 mL/min/kg | clearance (in vivo [8]): 44.2 mL/min/kg | hepatocyte CLint at 3 µM [17]: 43.4 µL/min/1e6 cells | Stabilty [18]: Stable | Cp(f) [19]: 0.015 µM | bioavailability (in vivo [20]): 38% | pKa [21]: 7.87 | solubility [22]: 90 µg/mL (≈ 237 µM) | permeability [23]: 25 10^-6 cm/s | concentration at 24 h (in vivo [24]): 4 µM | hepatocyte CLint at 3 µM (in vitro [25]): 25.7 µL/min/1e6 cells | Vd (in vivo [26]): 4.6 L/kg

N#Cc1cnc(Nc2cc(NC[C@H]3CNCCO3)c(-c3cccc(F)c3)cn2)cn1
half-life (in vivo [6]): 4.3 h | Vd (in vivo [7]): 26.8 L/kg | clearance (in vivo [8]): 113 mL/min/kg | bioavailability (in vivo [9]): 53%
